Where two headings read alike, the source gives them in different places.
What was measured:
HEK293 cells = assay: Cytotoxicity assay (PrestoBlue cell viability), HEK293; type: cell-based; details: Homo sapiens, 48 hours treatment
Experimental: (§1) Messa, Messa DX5, HCT116, HEK-293, PC-3, LNCaP, HCC827 and H1975 cell lines are issued from the American Type Culture Collection (ATCC).
(§2) Messa, Messa DX5 and HCT116 were maintained in McCoy's supplemented with 10% fetal bovine serum, and 1% penicillin/streptomycin. PC-3, LNCaP cells were maintained in RPMI medium supplemented with 10% fetal bovine serum, and 1% penicilin/streptomycin and in the case of Messa DX5: 500 nM Doxorubicin was added to maintain selection pressure. HEK293 were maintained in DMEM medium supplemented with 10% fetal bovine serum, and 1% penicillin/streptomycin. Cells were maintained at 37° C. with 5% CO2, 95% air, and humid atmosphere. In the case of hormonal dependent LNCaP cells, 2 μM DiHydroTestosterone (DHT) was added or not—depending on the type of biological assay—for the same incubation period as compounds.
(§3) For cytotoxicity assays, cells were seeded in 96-well microplates 24 hours before the addition of increasing concentrations of each compound in the culture medium. Cell viability was analyzed 48 hours following addition of each compound through the monitoring of mitochondrial […] activity using PrestoBlue® Cell Viability Reagent (Invitrogen; #A-13261). Paclitaxel was used as a control which is cytotoxic on various cancerous cells although not on chemoresistant MESSA DX5 lineage.

PC-3 cells = assay: Cytotoxicity assay (PrestoBlue cell viability), PC-3; type: cell-based; details: Homo sapiens, 48 hours treatment
Experimental: as §1, §2, §3

MESSA cells = assay: Cytotoxicity assay (PrestoBlue cell viability), MESSA; type: cell-based; details: Homo sapiens, MES-SA; 48 hours treatment; concentration inducing 50% cell mortality
Experimental: as §1, §2, §3

LNCaP cells = assay: Cytotoxicity assay (PrestoBlue cell viability), LNCaP; type: cell-based; details: Homo sapiens, 48 hours treatment
Experimental: as §1, §2, §3

[1] = biological target: T1, USP2^CD (purified catalytic domain of USP2) (Homo sapiens, UniProt O75604); assay: Inhibition of purified USP2^CD enzymatic activity (Ub-AMC or Ub-Rho substrate); type: biochemical; details: for inhibition at 0.01 µM: 0.01 μM compound; for inhibition at 0.05 µM: 0.05 μM compound; for inhibition at 0.1 µM: 0.1 μM compound; for inhibition at 0.5 µM: 0.5 μM compound; for inhibition at 1 µM: 1 μM compound; for inhibition at 5 µM: 5 μM compound; for inhibition at 10 µM: 10 μM compound; for inhibition at 25 µM: 25 μM compound; for inhibition at 50 µM: 50 μM compound; for IC50: read-out: IC50 USP2 CD
T1 construct: The purified catalytic domain of USP2 (USP2^CD, in-house purified); His; made in house; host or cells: E. coli BL21 Gold
T1 sequence (O75604 267-599 limits assumed): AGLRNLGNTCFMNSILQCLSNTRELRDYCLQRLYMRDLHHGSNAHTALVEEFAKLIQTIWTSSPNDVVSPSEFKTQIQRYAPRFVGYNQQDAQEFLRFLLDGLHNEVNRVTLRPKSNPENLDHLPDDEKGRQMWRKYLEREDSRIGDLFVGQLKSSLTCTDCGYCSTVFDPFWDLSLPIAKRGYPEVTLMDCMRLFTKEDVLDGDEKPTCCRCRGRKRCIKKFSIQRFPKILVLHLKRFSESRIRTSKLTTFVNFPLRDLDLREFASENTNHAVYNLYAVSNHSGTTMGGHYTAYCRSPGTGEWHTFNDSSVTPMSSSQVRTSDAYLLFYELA
Experimental: (§4) USP2CD or USP8CD were expressed in E. coli BL21 Gold. Cells were grown in LB Miller to mid-log phase and induced by addition of 0.5 mM IPTG for USP2CD for 5 h at 20° C., while 1 mM IPTG was added for USP8CD for 3 h at 37° C. Then, cells were harvested and frozen at −80° C.
For His-tagged USP2CD, cells were resuspended in buffer C (10 mM TRIS pH 8.0, 100 mM NaCl, 10 mM Imidazole) and lysed using a sonicator. The lysate was clarified by centrifugation and applied to Ni Sepharose6 Fast Flow resin (GE Healthcare). The resin was sequentially washed with buffer C, then with buffer C containing 50 mM Imidazole. Protein sample was eluted from the resin using buffer C containing 250 mM Imidazole. The eluted protein was buffer exchanged by gel-filtration on a Superdex 200 10/300 GL column (GE Healthcare) equilibrated in Buffer D (15 mM Bis-TRIS pH 6.0, 100 mM NaCl, 1 mM dithiothreitol (DTT)).
(§5) Enzymatic assay was performed in a HEPES buffer (50 mM pH7.6 1 mM DTT, 2% glycerol, 0.5 mM EDTA) or in a Tris buffer (40 mM pH7.4 1 mM DTT, 5% glycerol, 0.05 mg/ml BSA) respectively, following manufacturer's instructions. Compounds were added to the reaction mixture just prior to the substrate. The enzymatic reaction kinetics was monitored through the apparition of fluorescence due to the hydrolysis of the peptidyl Ub-AMC or Ub-Rho bound over 20 or 30 minutes.
(§6) Medium value out of duplicates is reported.

H1975 cells = assay: Cytotoxicity assay (PrestoBlue cell viability), H1975; type: cell-based, human; details: Homo sapiens, NCI-H1975, 48 h
Experimental: as §1, §3

[2] = biological target: T2, USP8^CD (purified catalytic domain of USP8) (Homo sapiens, UniProt P40818); assay: Inhibition of purified USP8^CD enzymatic activity (Ub-AMC or Ub-Rho substrate); type: biochemical; details: for inhibition at 0.01 µM: 0.01 μM compound; for inhibition at 0.05 µM: 0.05 μM compound; for inhibition at 0.1 µM: 0.1 μM compound; for inhibition at 0.5 µM: 0.5 μM compound; for inhibition at 1 µM: 1 μM compound; for inhibition at 5 µM: 5 μM compound; for inhibition at 10 µM: 10 μM compound; for inhibition at 25 µM: 25 μM compound; for inhibition at 50 µM: 50 μM compound; for IC50: read-out: IC50 USP8 CD
T2 construct: the purified catalytic domain of USP8 (USP8^CD, in-house purified); made in house; host or cells: E. coli BL21 Gold
T2 sequence (P40818 777-1109 limits assumed): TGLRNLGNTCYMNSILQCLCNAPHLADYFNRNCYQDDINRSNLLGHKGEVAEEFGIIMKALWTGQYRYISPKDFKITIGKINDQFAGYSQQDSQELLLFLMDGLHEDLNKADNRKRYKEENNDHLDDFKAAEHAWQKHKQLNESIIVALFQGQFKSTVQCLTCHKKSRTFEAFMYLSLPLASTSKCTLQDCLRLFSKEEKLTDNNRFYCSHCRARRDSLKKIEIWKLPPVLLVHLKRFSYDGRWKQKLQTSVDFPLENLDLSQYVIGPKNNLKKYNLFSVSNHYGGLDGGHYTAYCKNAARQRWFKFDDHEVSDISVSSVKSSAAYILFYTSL
Experimental: as §4
For His-tagged USP8CD, cells were resuspended in buffer A (50 mM TRIS pH 8.0, 500 mM NaCl, 2 mM Imidazole) and lysed using a sonicator. The lysate was clarified by centrifugation and applied to Ni Sepharose6 Fast Flow resin (GE Healthcare). The resin was sequentially washed first with buffer A containing 10 mM Imidazole then with buffer A containing 20 mM Imidazole, and finally with buffer A containing 50 mM Imidazole. Protein sample was eluted from the resin using buffer A containing 300 mM Imidazole. The eluted protein was buffer exchanged by gel-filtration on a Superdex 200 10/300 GL column (GE Healthcare) equilibrated in Buffer B (20 mM HEPES pH 7.5, 300 mM NaCl, 2 mM dithiothreitol (DTT)).
as §5, §6

MESSA DX5 cells = assay: Cytotoxicity assay (PrestoBlue cell viability), MESSA DX5; type: cell-based, human; details: for EC50: Homo sapiens, MES-SA/Dx5, 48 hours treatment, chemoresistant line
Experimental: as §1, §2, §3

[3] = Ub-AMC substrate at 1 μM, Table 2b
[4] = Ub-Rhodamine substrate at 0.1 μM, Table 2c

Row | Compound | EC50 (HEK293 cells) | EC50 (PC-3 cells) | EC50 (MESSA cells) | EC50 (LNCaP cells) | inhibition at 0.01 µM ([1]; Table 1c) | inhibition at 0.05 µM ([1]; Table 1c) | inhibition at 0.1 µM ([1]; Table 1c) | inhibition at 0.5 µM ([1]; Table 1c) | inhibition at 1 µM ([1]; Table 1b) | inhibition at 1 µM ([1]; Table 1c) | inhibition at 5 µM ([1]; Table 1c) | inhibition at 10 µM ([1]; Table 1c) | inhibition at 25 µM ([1]; Table 1b) | inhibition at 50 µM ([1]; Table 1b) | IC50 [1, 3] | EC50 (H1975 cells) | inhibition at 0.01 µM ([2]; Table 1d) | inhibition at 0.05 µM ([2]; Table 1d) | inhibition at 0.1 µM ([2]; Table 1d) | EC50 (MESSA DX5 cells) | other results
1 | CCS(=O)(=O)Cc1nc2c(nc1CS(=O)(=O)CC)C(=O)c1ccccc1C2=O [VIN6075] | > 3000 nM | 3000 nM | 3000 nM | 2800 nM | 11% | 6% | -26% | 2% | 51% | 31% | 51% | 57% | 99% | 100% | 5000 nM | > 3000 nM | -15% | 24% | 12% | > 3000 nM | inhibition at 5 µM ([1]; Table 1b): 75%; IC50 [1, 4]: 600 nM; inhibition at 0.5 µM ([2]; Table 1d): 51%; inhibition at 1 µM ([2]; Table 1b): 85%; inhibition at 1 µM ([2]; Table 1d): 86%; inhibition at 5 µM ([2]; Table 1b): 102%; inhibition at 5 µM ([2]; Table 1d): 104%; inhibition at 10 µM ([2]; Table 1d): 110%; inhibition at 25 µM ([2]; Table 1b): 104%; inhibition at 50 µM ([2]; Table 1b): 106%; IC50 [2, 3]: 500 nM; IC50 [2, 4]: 80 nM
2 | COc1ccc(S(=O)(=O)Cc2nc3c(nc2CS(=O)(=O)c2ccc(OC)c(OC)c2)C(=O)c2ccccc2C3=O)cc1OC [OVM18] | 2500 nM | 3000 nM | 1300 nM | 2100 nM | -19% | -3% | 19% | -20% | 53% | 44% | 17% | 9% | 53% | 63% | > 10000 nM | > 3000 nM | 2% | 21% | -8% | 2500 nM | inhibition at 0.5 µM ([2]; Table 1d): 63%; inhibition at 1 µM ([2]; Table 1b): 100%; inhibition at 1 µM ([2]; Table 1d): 83%; inhibition at 5 µM ([2]; Table 1b): 103%; inhibition at 5 µM ([2]; Table 1d): 77%; inhibition at 10 µM ([2]; Table 1d): 71%; inhibition at 25 µM ([2]; Table 1b): 96%; inhibition at 50 µM ([2]; Table 1b): 101%; IC50 [2, 3]: 500 nM
3 | CC(=O)O[C@H]1C(=O)[C@@]2(C)[C@H]([C@H](OC(=O)c3ccccc3)[C@]3(O)C[C@H](OC(=O)[C@H](O)[C@@H](NC(=O)c4ccccc4)c4ccccc4)C(C)=C1C3(C)C)[C@]1(OC(C)=O)CO[C@@H]1C[C@@H]2O [Paclitaxel, reference compound] |  |  | 1500 nM |  |  |  |  |  |  |  |  |  |  |  |  |  |  |  |  | > 100000 nM | MESSA-DX5 cells death (MESSA DX5 cells; high concentration (100 μM)): did not induce MESSA-DX5 cells death
